Assay results from article PMC6556873, “Rapid Covalent-Probe Discovery by Electrophile-Fragment Screening” (Journal of the American Chemical Society, 2019).
Read-outs that look alike come from different tables or passages of the source.

How the values were obtained:
BSA = molecular target: T1, BSA (Bos taurus, UniProt P02769); set-up: Intact protein LC/MS covalent labelling, fragments in pools of five, 200 uM each, 4 °C; conditions: 24 h, 4 °C, pool of five; 200 µM; covalent
T1 construct: gene ALB
T1 sequence (P02769 whole entry, the tested form may be a part): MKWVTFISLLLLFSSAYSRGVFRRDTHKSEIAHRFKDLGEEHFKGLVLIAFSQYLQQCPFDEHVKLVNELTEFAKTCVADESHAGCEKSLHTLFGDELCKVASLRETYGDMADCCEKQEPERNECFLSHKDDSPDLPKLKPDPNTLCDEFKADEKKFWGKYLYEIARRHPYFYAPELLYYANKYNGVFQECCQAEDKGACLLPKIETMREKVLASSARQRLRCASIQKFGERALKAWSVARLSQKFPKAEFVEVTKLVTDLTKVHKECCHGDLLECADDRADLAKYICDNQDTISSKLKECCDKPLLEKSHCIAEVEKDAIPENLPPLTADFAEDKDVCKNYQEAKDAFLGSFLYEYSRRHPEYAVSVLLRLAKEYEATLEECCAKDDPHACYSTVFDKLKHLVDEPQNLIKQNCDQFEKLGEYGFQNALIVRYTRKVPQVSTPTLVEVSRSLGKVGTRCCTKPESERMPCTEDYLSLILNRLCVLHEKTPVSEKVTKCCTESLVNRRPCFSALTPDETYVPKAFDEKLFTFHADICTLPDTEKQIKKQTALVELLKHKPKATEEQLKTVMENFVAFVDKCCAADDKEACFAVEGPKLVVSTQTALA

NNMT (hNNMT) = molecular target: T2, NNMT (hNNMT) (Homo sapiens, UniProt P40261); set-up: Intact protein LC/MS covalent labelling, fragments in pools of five, 200 uM each, 4 °C; conditions: 24 h, 4 °C, pool of five; 200 µM; covalent
T2 construct: wild type, N-terminal His6 tag kept (no cleavage described), E. coli, construct 31248 Da
T2 sequence (P40261 1-264): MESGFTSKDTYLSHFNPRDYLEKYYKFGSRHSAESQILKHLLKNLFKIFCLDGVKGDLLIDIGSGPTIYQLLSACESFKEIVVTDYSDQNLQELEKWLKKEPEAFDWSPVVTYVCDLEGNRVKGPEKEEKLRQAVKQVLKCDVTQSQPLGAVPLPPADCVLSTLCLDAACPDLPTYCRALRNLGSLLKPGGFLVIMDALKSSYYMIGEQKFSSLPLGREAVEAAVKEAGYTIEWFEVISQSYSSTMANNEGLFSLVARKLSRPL

NUDT7 = molecular target: T3, NUDT7 (Homo sapiens, UniProt P0C024); set-up: Intact protein LC/MS covalent labelling, fragments in pools of five, 200 uM each, 4 °C; conditions: 24 h, 4 °C, pool of five; 200 µM; covalent
T3 construct: residues 14-235, E. coli, pNIC28-Bsa4, N-terminal His6 tag removed by TEV, construct 26672 Da
T3 sequence (P0C024 14-235): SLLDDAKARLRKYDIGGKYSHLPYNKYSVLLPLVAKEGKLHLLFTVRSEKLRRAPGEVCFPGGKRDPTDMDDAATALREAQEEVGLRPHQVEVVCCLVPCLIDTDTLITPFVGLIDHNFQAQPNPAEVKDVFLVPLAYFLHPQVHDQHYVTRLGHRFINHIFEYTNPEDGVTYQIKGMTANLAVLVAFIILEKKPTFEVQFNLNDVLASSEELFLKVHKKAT

OTUB2 (OTUB2A) = molecular target: T4, OTUB2 (OTUB2A) (Homo sapiens, UniProt Q96DC9); set-up: Intact protein LC/MS covalent labelling, fragments in pools of five, 200 uM each, 4 °C; conditions: 24 h, 4 °C, pool of five; 200 µM; covalent
T4 construct: full length residues 1-234, E. coli BL21(DE3)-R3, His tag removed by TEV, construct 27312 Da
T4 sequence (Q96DC9 1-234): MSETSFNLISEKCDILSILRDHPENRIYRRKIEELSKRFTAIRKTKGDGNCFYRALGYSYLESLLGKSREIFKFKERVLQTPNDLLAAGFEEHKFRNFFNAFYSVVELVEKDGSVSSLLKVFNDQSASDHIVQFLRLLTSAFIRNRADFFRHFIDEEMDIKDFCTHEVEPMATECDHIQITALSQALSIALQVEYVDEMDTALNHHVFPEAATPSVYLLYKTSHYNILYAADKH

PCAF = molecular target: T5, PCAF (Homo sapiens, UniProt Q92831); set-up: Intact protein LC/MS covalent labelling, fragments in pools of five, 200 uM each, 4 °C; conditions: 24 h, 4 °C, pool of five; 200 µM; covalent
T5 construct: gene KAT2B
T5 sequence (Q92831 whole entry, the tested form may be a part): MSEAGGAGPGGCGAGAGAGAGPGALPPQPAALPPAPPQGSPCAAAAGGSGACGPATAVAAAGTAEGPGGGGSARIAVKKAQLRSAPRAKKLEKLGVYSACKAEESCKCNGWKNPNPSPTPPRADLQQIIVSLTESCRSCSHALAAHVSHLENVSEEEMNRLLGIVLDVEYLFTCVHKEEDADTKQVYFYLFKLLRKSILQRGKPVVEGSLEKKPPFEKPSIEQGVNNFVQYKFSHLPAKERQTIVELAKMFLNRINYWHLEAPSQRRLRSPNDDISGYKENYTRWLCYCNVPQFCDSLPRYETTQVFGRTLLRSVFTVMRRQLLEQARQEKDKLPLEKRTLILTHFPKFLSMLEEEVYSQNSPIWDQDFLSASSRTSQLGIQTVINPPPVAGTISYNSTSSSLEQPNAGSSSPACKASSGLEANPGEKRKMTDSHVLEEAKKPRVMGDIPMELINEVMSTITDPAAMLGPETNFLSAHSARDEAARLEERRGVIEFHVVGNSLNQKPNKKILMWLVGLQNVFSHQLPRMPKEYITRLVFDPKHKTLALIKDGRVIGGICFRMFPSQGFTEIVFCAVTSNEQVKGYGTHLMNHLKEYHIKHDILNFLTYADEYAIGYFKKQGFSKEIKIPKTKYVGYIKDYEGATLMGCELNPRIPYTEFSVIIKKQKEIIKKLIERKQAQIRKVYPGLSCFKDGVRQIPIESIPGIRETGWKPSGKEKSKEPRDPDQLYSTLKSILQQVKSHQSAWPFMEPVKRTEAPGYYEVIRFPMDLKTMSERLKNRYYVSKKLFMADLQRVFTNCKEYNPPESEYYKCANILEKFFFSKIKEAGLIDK

in vitro [1] = test: in vitro; set-up: species or system CCD841, HEK293; conditions: human, hb2 cells, read-out: HB-2 Cells Viability (%)
in vitro [2] = test: in vitro; set-up: species or system HB2, HEK293; conditions: human, ccd841 cells
in vitro [3] = test: in vitro; set-up: species or system HB2, CCD841; conditions: human, hek293 cells

Row | SMILES | BSA (BSA) | NNMT (NNMT (hNNMT)) | NUDT7 (NUDT7) | OTUB2 (OTUB2 (OTUB2A)) | PCAF (PCAF) | viability at 48 h, 10 µM (in vitro [1]) | viability at 48 h, 10 µM (in vitro [2]) | viability at 48 h, 10 µM (in vitro [3])
1 | Cc1ccc(S(N)(=O)=O)cc1NC(=O)CCl [PCM-0102744] | 0 | 0.17 | 0 | 0.1 | 0 | 54.4% | 61.4% | 19.7%
2 | O=C(CCl)Nc1oncc1-c1ccccc1 [PCM-0102746] | 0 | 0.87 | 0 | 0.64 | 0 | 72.1% | 71.8% | 73.3%
3 | CN(Cc1cccc(F)c1)C(=O)CCl [PCM-0102747] | 0 | 0 | 0 | 0 | 0 | 64.5% | 73.1% | 46.1%
4 | O=C(CCl)N1CCOCC1 [PCM-0102749] | 0 | 0 | 0 | 0 | 0 | 98.7% | 109% | 97.6%
5 | O=C(CCl)N1CCCCCC1 [PCM-0102751] | 0 | 0 | 0 | 0 | 0 | 99.5% | 85.6% | 73.7%
6 | C=CC(=O)N(C)CC1CCn2ccnc2C1 (centres unmarked) [PCM-0102752] | 0 | 0 | 0 | 0 | 0 | 97.7% | 122% | 88.4%
7 | O=C(CCl)NC(=O)NCc1cccs1 [PCM-0102753] | 0 | 0.55 | 0 | 0.23 | 0 | 61.5% | 71.1% | 55.8%
8 | CC(NC(=O)CCl)C(=O)N(C)C (centres unmarked) [PCM-0102754] | 0 | 0 | 0 | 0 | 0 | 96% | 101% | 83.7%
9 | O=C(CCl)N(c1ccccc1)C1CCS(=O)(=O)C1 (centres unmarked) [PCM-0102755] | 0 | 0 | 0.17 | 0 | 0 | 28.5% | 20.4% | 16.7%
10 | COc1ccc(Cl)cc1C(=O)NNC(=O)CCl [PCM-0102763] | 0 | 0 | 0.1 | 0.64 | 0 | 73.6% | 13.4% | 25.1%
11 | C=CC(=O)N1CCCc2c([nH]c3c(F)cccc23)C1 [PCM-0102767] | 0.1 | 0 | 0 | 0 | 0 | 89.2% | 96.6% | 96%
12 | CC(C)(C)C(NC(=O)CCl)c1cccs1 (centres unmarked) [PCM-0102773] | 0 | 0 | 0.09 | 0 | 0 | 86.9% | 72.8% | 63.6%
13 | O=C(CCl)NNC(=O)C1CC1 [PCM-0102776] | 0 | 0 | 0 | 0.23 | 0 | 93.1% | 88.4% | 90.2%
14 | O=C(CCl)N1CCc2ccc([N+](=O)[O-])cc21 [PCM-0102777] | 0 | 0.61 | 0 | 0 | 0 | 1.7% | 2.6% | 17.9%
15 | O=C(CCl)Nc1nnn[nH]1 [PCM-0102778] | 0 | 0 | 0 | 0.3 | 0 | 102% | 102% | 120%
16 | O=C(CCl)Nc1nnc(CC(F)(F)F)o1 [PCM-0102779] | 0 | 0.24 | 0 | 0 | 0 | 106% | 99.9% | 102%
17 | O=C(CCl)N1CCC(C(=O)N2CCCCCC2)CC1 [PCM-0102781] | 0 | 0 | 0 | 0 | 0 | 90.6% | 92.5% | 63.8%
18 | O=C(CCl)Nc1nc(-c2cccs2)cs1 [PCM-0102784] | 0 | 0.71 | 0.77 | 0.07 | 0 | 39.8% | 84.9% | 41.3%
19 | COC(=O)NC(=O)CCl [PCM-0102791] | 0 | 0 | 0 | 0.09 | 0 | 106% | 123% | 94.3%
20 | O=C(CCl)NC(=O)c1ccc[nH]1 [PCM-0102795] | 0 | 0 | 0 | 0 | 0 | 96.2% | 100% | 149%
21 | O=C(CCl)Nc1cccc(Cl)c1Cl [PCM-0102797] | 0 | 0 | 0.15 | 0 | 0 | 44.2% | 72.2% | 40.9%
22 | CC(NC(=O)CCl)c1ccco1 (centres unmarked) [PCM-0102798] | 0 | 0 | 0.14 | 0.19 | 0 | 95.8% | 97.1% | 88.4%
23 | Cc1cc(Br)ccc1NC(=O)CCl [PCM-0102799] | 0 | 0.39 | 0.24 | 0.61 | 0 | 34.9% | 63.3% | 4.7%
24 | O=C(CCl)NC1c2ccccc2-c2ccccc21 [PCM-0102802] | 0 | 0 | 0.19 | 0.16 | 0 | 61.8% | 82.7% | 58.9%
25 | NS(=O)(=O)c1ccc(NC(=O)CCl)cc1 [PCM-0102807] | 0 | 0 | 0 | 0.29 | 0 | 53.8% | 56.9% | 8%
26 | C=CC(=O)N1CCC(c2noc(C3CC3)n2)CC1 [PCM-0102810] | 0 | 0 | 0.06 | 0 | 0 | 103% | 103% | 94.1%
27 | C#CCN1CCN(C(=O)CCl)CC1.Cl [PCM-0102811] | 0 | 0 | 0 | 0 | 0 | 92.5% | 84.9% | 72.2%
28 | C#Cc1cccc(NC(=O)NC(=O)CCl)c1 [PCM-0102813] | 0 | 0 | 0.13 | 0.14 | 0 | 74.1% | 82.2% | 73.2%
